The values below come from a melting point compilation (Tetko et al.; mined from patent text by program, amines drawn as free bases though some values may be those of a salt).

Structures are written as SMILES.

As a reminder, the melting point is the temperature of the solid-liquid transition. The molecule `CC(C)n1cc(-c2nc(C(N)=O)c(N)nc2-c2cc(F)cc(F)c2)ccc1=O` showed a melting point of 249 °C.
As to `COc1cc2oc(=O)c3c(c2cc1OC)CCN(CCN1CC2CCC1CC2)C3`, the melting point lay within 133 to 135 °C.
To `Nc1cc(Cl)c(Cl)cc1-n1cccc1` belongs 57 to 58 °C; to `COc1ccc(C2=NN(c3ccc(OCCCCBr)cc3)C(=O)[C@@H]3CC=CC[C@H]23)cc1OC`, 38 to 43 °C; to `Cc1[nH]c(C=O)c(C)c1C(=O)NCCC1CCCN1C` (stereo not given), 143 to 149 °C.
To `COc1nnc(-c2ccc3ncn(-c4ccc(OC(F)(F)F)cc4)c3c2)o1` belongs 150 to 151 °C.
In turn, `COc1c(C)c(C)c(OC)c(CC[C@@]2(C)CO2)c1C` returned a melting point of 47 to 48 °C.
In the case of `CCOC(=O)COc1cccc2c1C[C@@H](NCc1ccccc1)[C@H](O)C2` (relative stereo) it was 93 to 97 °C; in that of `CCCc1c(C(=O)N(C)Cc2ccc3c(Br)c(OCc4nnn[nH]4)ccc3c2)cnn1-c1ccccc1`, 75 to 85 °C; in that of `CNC(=S)NCCn1c(=O)ccc2c(C)cc(C)nc21`, 216 to 218 °C.
To `CNc1ncc(S(=O)(=O)NC(=O)NC(C)C)c(Nc2cccc(C)c2)n1` belongs 206 to 207 °C.
Turning to `Cc1c(Cc2cccnc2)oc2ccc(Br)cc12`, the melting point was 57 to 58 °C.
In the case of `Cc1cc(C(C)(C)C)c(O)c2[nH]c(Cc3ccccc3)nc12` it was 226 to 228 °C; in that of `CCC(CC)=NOC(=O)c1cc(-n2c(=O)cc(C(F)(F)F)n(C)c2=O)c(F)cc1Cl`, 128 to 130 °C; in that of `CC(C)(C)OC(=O)NCc1ccc(CNC(=O)[C@@H](CCCNC(N)=N[N+](=O)[O-])NC(=O)C(c2ccccc2)c2ccccc2)cc1`, 198 °C.
For the molecule `O=C(O)c1cc(O)c(I)c(O)c1`, the melting point was in the range of 245 to 248 °C.
Molecule `Cn1cnc(S(=O)(=O)Nc2cccc(C=C3c4ccccc4CCc4ccccc43)c2)c1` registered a melting point of 257 °C.
In turn, `Nc1ncnc2c1ncn2Cc1oc2ccccc2c(=O)c1-c1ccccc1` showed a melting point of 173 to 175 °C.
With `N#CCCNC(=O)c1cccc(-c2cccc(Oc3cccc(Cl)c3)n2)c1`, the melting point is 139 to 140 °C.
`Cc1cc(-c2ccccc2)n2nc(S(C)(=O)=O)nc2n1` gave a melting point of 158 to 159 °C.
To `CCOC(=O)c1cc2c(Cl)cccc2n1CC#N` belongs 143 to 144 °C; to `c1ccc2c(c1)CNc1c-2ccc2ccccc12`, 186 to 188 °C; to `O=[N+]([O-])c1nccn1COC(CO)CO`, 88 °C.
In the case of `CC#CCCn1ncc2c(OCC)c(C(=O)OCC)c(C)nc21` it was 94 to 95 °C; in that of `c1ccc(-c2ccnc3ncnn23)cc1`, 140 °C.
In the case of `CS(=O)c1ccc(CSc2nnc(-c3ccc4c(c3)CCO4)o2)cc1C(F)(F)F` (stereo not given), the melting point is 177 to 178 °C.
In the case of `COc1cc(C2CCN(C[C@H](O)C(F)(F)F)CC2)ccc1Nc1ncc2ccc(-c3ccccc3OC)n2n1` it was 77 to 94 °C; in that of `CC(=O)SCCC(=O)N1c2ccccc2C(C)(C)C1C(N)=O` (stereo not given), 156 to 158 °C; in that of `O=c1nc(N2CCc3ccccc3C2)sc2ncccc12`, 159 to 160 °C.
`CC1=C(C(=O)OC(C)C)C(c2cccc([N+](=O)[O-])c2)n2c(n[nH]c2=O)N1` (stereo not given) displayed a melting point of 225 to 227 °C.
Regarding `c1ccc(-c2cc3ccccc3n2-c2ccccc2)cc1`, the melting point fell in the range of 78 to 80 °C.
On to `COCCOC[C@H](CC1(C(=O)O)CCCC1)C(=O)Oc1ccc2c(c1)CCC2`, for which the melting point fell in the range of 111 to 113 °C.
Take `OC(CCN1CC=C(c2ccccc2)CC1)c1ccc(Cl)cc1Cl` (stereo not given): the melting point was 103 to 104 °C.
In the case of `C=C(CC)C(=O)c1ccc(OCCCC(=O)O)c(Cl)c1Cl` it was 87 to 89 °C; in that of `COc1ccc(-c2nc(C(=O)O)c[nH]2)cc1OC1CCCC1`, 206 to 208 °C; in that of `CCOC(=O)c1cccc(C=Cc2ccccc2)c1`, 82 °C.
In the case of `Nc1nc(OS(=O)(=O)c2ccccc2)ncc1F` it was 139 to 141 °C; in that of `O=C(Nc1cccnc1)c1ccc(OC(F)F)c2oc3ccc(C(F)(F)F)cc3c12`, 235 to 236 °C.
To `CN1C(=O)[C@H](NC(=O)/C=C/c2ccccc2Br)N=C(c2ccccc2)c2ccccc21` belongs 113 to 116 °C; to `COc1cccc(NC(=O)c2ccc(C)cc2)c1C(C)=O`, 48 °C.
`O=CC(Nc1ccc2c(c1)OCC(=O)N2)N1CCC(Cc2ccc(F)cc2)CC1` (stereo not given) yielded a melting point of 156 to 161 °C.
In the case of `CC(=O)OCC1OC(n2cnc3c(N)ncnc32)CC1O` (stereo not given) it was 150 to 152 °C.
To `Nc1ccccc1C(=O)NN1CCOCC1` belongs 172 °C; to `CC12CCC3C(=C1CCC2=O)C=CC1=CC(=O)CCC13CO` (stereo not given), 264 to 265 °C.
On to `CC(C)c1cn2ccccc2c1S(=O)(=O)c1ccc(OCCCN2CCN(c3ccccc3)CC2)cc1`, for which the melting point is 135 to 136 °C.
`C=CCOC(=O)NC(C)(C)c1ccc(-c2nc(Nc3ccc(CCn4ccnc4)cc3)ncc2Cl)cc1F` yielded a melting point of 88 °C.
On to `Nc1ccc(C23CC(C2)C(=O)N(CC2CCCCC2)C3=O)cc1`, for which the melting point fell in the range of 140 to 146 °C.
On to `CCN(C(=O)C(F)(F)F)c1cc(C)nc(Oc2c(C)cc(C)cc2C)c1C`, for which the melting point was 110 to 111 °C.
The molecule `O=C1c2cccc(-n3c(=O)[nH]c4cnccc4c3=O)c2C2CC3(CCN12)OCCO3` (stereo not given) came in with a melting point of 204 °C.
As for `CC#CCOc1ccc(S(=O)(=O)N(Cc2cccnc2)C(CSCc2ccccc2)C(=O)NO)cc1` (stereo not given), the melting point lay in the range of 74 to 78 °C.
As to `CCn1c(=O)c2c(nc(/C=C/c3ccc(OC(C)=O)c(OC)c3)n2C)n(CC)c1=O`, the melting point lay in the range of 194 to 195 °C.
To `NS(=O)(=O)c1nc2ccc(OC(=O)C=Cc3ccccc3)cc2s1` belongs 235 °C.
As for `O=[N+]([O-])c1ccc2c(c1)S(=O)(=O)N=C(NC1CCC1)N2`, the melting point lay in the range of 298 to 301 °C.
Molecule `O=C(NC1CCn2c(CCc3ccccc3)nc3cccc1c32)c1ccccn1` (stereo not given) displayed a melting point of 173 °C.
To `Cc1cc2c(s1)CCCC(=O)N2` belongs 133 to 135 °C; to `Cc1ccc(-c2ncc(C)cn2)cc1`, 122 to 123 °C; to `CCOC(=O)c1cn2c(ccc3ccc(Cl)cc32)n1`, 221 to 222 °C.
In the case of `CC(C)(C)OC(=O)CN1CCC(=O)N(CC(=O)OC(C)(C)C)CCC1=O` it was 180 °C; in that of `Oc1cc(Br)ccc1/C=N/c1ccccc1`, 129 °C.
To `COc1ccc(C)cc1NC(=O)Nc1ccc(C2=CCN(C(=O)Nc3cc(OCCO)ccc3Cl)CC2)cc1` belongs 139 to 142 °C; to `CC(C(=O)CCl)c1cccc(C(=O)c2ccccc2)c1` (stereo not given), 60 °C.
Molecule `Cc1oc(-c2ccccc2)nc1COc1ccc(COc2nn(-c3ccccc3)cc2CO)cc1` had a melting point of 118 to 119 °C.
To `C1=C(c2cccs2)CCC(N2CCN(c3ccccn3)CC2)C1` (stereo not given) belongs 156 to 158 °C; to `NC(=O)COc1ncc(Cl)c(N)c1Cl`, 192 to 193 °C.
In the case of `CON=Cc1cc([N+](=O)[O-])c(Cl)cc1Cl` it was 129 to 132 °C; in that of `COc1ccc2c(C(=O)c3ccc(OC4CCCCC4N4CCCCCC4)cc3)c(-c3ccc(OCCN4CCCC4)cc3)sc2c1` (stereo not given), 43.5 to 51.5 °C.
Consider `CCC(C)(C)c1ccc(S(=O)(=O)Nc2ncnc(OCCOc3ccc(Br)cn3)c2-c2ccc(C)cc2)cc1`, for which the melting point was 154 °C.
On to `O=C(CO)c1ccc(F)c(F)c1Nc1ccc(I)cc1F`, for which the melting point turned out to be 128 °C.
`CC1CC(=O)c2cc(F)ccc2S1(=O)=O` (stereo not given) yielded a melting point of 113 to 114 °C.
To `COC(=O)CCc1oc(-n2cnc3ccccc32)nc1-c1ccc(C(F)(F)F)cc1` belongs 129 to 130 °C.
To `CCOC(=O)N(c1ccc(Cl)cc1)c1ccccc1N` belongs 112 to 115 °C; to `CC(C)(C)OC(=O)NCCNS(=O)(=O)c1ccc(Br)s1`, 106 °C.
`Cc1ccc(Br)c(S(C)(=O)=O)c1` had a melting point of 110 to 114 °C.
In the case of `CN(SC(Cl)(Cl)Cl)C(=O)ON=C1SCC(=O)NC1(C)C` it was 189 to 190 °C; in that of `CCOC(=O)CCC(O)c1cnc2c(OC)cccc2c1Nc1ccccc1C` (stereo not given), 133 to 135 °C.
In the case of `CC(=O)Nc1csc(Br)n1`, the melting point was 165 °C.
To `COc1c(O)c(C)c(CN2CCN(C(=S)SC)CC2)c(O)c1OC` belongs 135 to 136 °C.
For the molecule `CN(C)c1nc(N(C)Cc2ccccc2O)nc(N(C)Cc2ccccc2O)n1`, the melting point fell in the range of 156 to 157 °C.
Molecule `COc1ccc2c(C)c(CCCl)c(=O)oc2c1OC` came in with a melting point of 137 to 139 °C.
In the case of `COc1ccc2c(c1)C(=O)C(C)(C)CC2c1ccc(Cl)cc1` (stereo not given) it was 135 to 138 °C.
The molecule `CCCC1=C(C#N)C(c2cccc3oc(C)nc23)c2c[nH]nc2N1` (stereo not given) gave a melting point of 208 °C.
For `COc1cc2c(Cl)c(C(N)=O)cnc2cc1F`, the melting point came out at 228 °C.
The molecule `Cc1cn(-c2ccc(C(=N)N)cc2)c(=O)n1-c1ccc(CCC(=O)OC(C)C)cc1` showed a melting point of 246 to 249 °C.
To `NS(=O)(=O)c1ccc(-n2nc(C(F)(F)F)cc2-c2ccc(-c3cscn3)cc2)cc1F` belongs 168 to 170 °C.
Turning to `Cn1cc(C2=C(c3c4n(c5ccccc35)CCN(C(=O)CNC(=O)C(F)(F)F)C4)C(=O)NC2=O)c2ccccc21`, the melting point lay in the range of 170 to 172 °C.
The molecule `CCOC(=O)C1CN(C2CC2)c2nc(Sc3ccc(C)cc3)c(F)cc2C1=O` (stereo not given) displayed a melting point of 124 to 125 °C.
In the case of `CCO[C@@H](Cc1ccc2oc(Cc3nc(-c4ccccc4)oc3C)cc2c1)C(=O)O` it was 129 °C.
As for `Oc1ccc(O)c(O)c1O`, the melting point is 162 to 164 °C.
To `CCCCOC(=O)Nc1nc(C(=NOC2CCCC2)C(=O)OC)ns1` belongs 115 to 118 °C.
To `c1ccc(NCP(CNc2ccccc2)CNc2ccccc2)cc1` belongs 87 to 88 °C.
